In patent publication US20240391954A1, “MC4R AGONIST PEPTIDES” (The Regents of the University of Michigan, priority 2021, published 2024):
Read-outs that look alike come from different tables or passages of the source. Positions of bridges follow the written chain, without caps; N, C: chain ends. Non-standard residues stand in square brackets, D forms with d. Residues, ends and D or L forms follow the SMILES beside them. dPhe(4-tBu) = CC(C)(C)c1ccc(C[C@@H](N)C(=O)O)cc1; dBip = N[C@H](Cc1ccc(-c2ccccc2)cc1)C(=O)O; dPhe(4-Br) = N[C@H](Cc1ccc(Br)cc1)C(=O)O; 2Nal = N[C@@H](Cc1ccc2ccccc2c1)C(=O)O; d(αMeF) = C[C@@](N)(Cc1ccccc1)C(=O)O; dTic = O=C(O)[C@H]1Cc2ccccc2CN1; Cit = NC(=O)NCCC[C@H](N)C(=O)O; Nle = CCCC[C@H](N)C(=O)O

Experiments:
[1] = target: T1, human MC3R (Homo sapiens, UniProt P41968); assay: split-luciferase cAMP sensor assay, agonist mode (measurement window 1), hMC3R; assay type: cell-based; conditions: for Emax / EC50 / MC3R cAMP % max activation: agonist mode; for Emax: read-out: MC3R cAMP % max activation; for EC50: read-out: MC3R cAMP EC50
T1 construct: expressed in transfected cells; host or cells: HEK-293 cells stably expressing the GScAMP22F split-luciferase cAMP sensor (parent reporter line from Promega); MC3R clone generated in-house, G418 selection
Method in brief: (§1)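 EC50 values come from a four-parameter variable-slope fit of luminescence in measurement window 1, capturing direct peptide effects on receptor-expressing cells with a cAMP22f luciferase sensor. Cells were preloaded with 4% D-luciferin, serum-free medium; 20 μM forskolin normalized for cell number and transducer efficiency.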

[2] = target: T2, human MC4R (Homo sapiens, UniProt P32245); assay: split-luciferase cAMP sensor assay, agonist mode (measurement window 1), hMC4R; assay type: cell-based; conditions: for Emax / EC50 / MC4R cAMP % max activation: agonist mode; for Emax: read-out: MC4R cAMP % max activation; for EC50: read-out: MC4R cAMP EC50
T2 construct: host or cells: HEK-293 cells stably expressing the GScAMP22F split-luciferase cAMP sensor and hMC4R, G418 selection
Method in brief: as §1

T2 sequence (P32245 whole entry): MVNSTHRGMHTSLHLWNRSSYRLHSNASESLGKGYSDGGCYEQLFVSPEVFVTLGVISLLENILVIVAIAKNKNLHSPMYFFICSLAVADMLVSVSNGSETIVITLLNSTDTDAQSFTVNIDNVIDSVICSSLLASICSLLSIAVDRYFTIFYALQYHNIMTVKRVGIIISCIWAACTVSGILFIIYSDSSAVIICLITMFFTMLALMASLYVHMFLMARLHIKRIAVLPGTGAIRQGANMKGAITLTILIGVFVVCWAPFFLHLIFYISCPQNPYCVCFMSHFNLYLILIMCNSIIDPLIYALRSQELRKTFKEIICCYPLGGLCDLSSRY
T1 sequence (P41968 whole entry): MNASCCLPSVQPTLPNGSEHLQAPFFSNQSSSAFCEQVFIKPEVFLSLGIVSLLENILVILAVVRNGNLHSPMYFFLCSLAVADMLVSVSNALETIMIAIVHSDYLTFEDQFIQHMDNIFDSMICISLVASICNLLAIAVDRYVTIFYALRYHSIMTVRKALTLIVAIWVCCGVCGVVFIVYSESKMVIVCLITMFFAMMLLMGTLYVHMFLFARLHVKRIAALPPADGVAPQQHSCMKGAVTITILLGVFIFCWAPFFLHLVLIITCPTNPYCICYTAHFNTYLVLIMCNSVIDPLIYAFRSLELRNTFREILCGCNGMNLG

SMILES: CC(=O)N[C@@H](CCCNC(=N)N)C(=O)N[C@H]1CSSC[C@@H](C(=O)N[C@@H](CCCNC(=N)N)C(=O)N[C@@H](Cc2ccccc2)C(=O)NCC(=O)O)NC(=O)[C@@H](Cc2c[nH]c3ccccc23)NC(=O)[C@H](CCCNC(=N)N)NC(=O)[C@@H](Cc2ccc(Br)cc2)NC(=O)[C@H](CCCNC(=N)N)NC(=O)[C@@H](C)NC1=O [CTX-1219] (Ac-RC[dA]R[dPhe(4-Br)]R[dW]CRFG-OH; disulfide 2-8 (inferred))
- Emax ([1]; hMC3R stable cell line): 20%
- EC50 ([1]; hMC3R stable cell line): 4.5 nM
- MC4R selectivity vs MC1R [2]: 1
- MC4R selectivity vs MC3R [2]: 1.99
- Emax ([2]; hMC4R stable cell line): 76%
- EC50 ([2]; hMC4R stable cell line): 2.3 nM

SMILES: CCCC[C@H](NC(=O)[C@H](CCCNC(=N)N)NC(C)=O)C(=O)N[C@H]1CSSC[C@@H](C(N)=O)NC(=O)[C@@H](Cc2c[nH]c3ccccc23)NC(=O)[C@H](CCCNC(=N)N)NC(=O)[C@@H](Cc2ccc(Br)cc2)NC(=O)[C@H](CCCNC(=N)N)NC1=O [CTX-1232, Arg-Nle-cyclo(Cys-Arg-D-Phe(4-Br)-Arg-D-Trp-Cys)] (Ac-R[Nle]CR[dPhe(4-Br)]R[dW]C-NH2; disulfide 3-8 (inferred))
- MC3R cAMP % max activation ([1]; hMC3R stable cell line): (41%)
- MC4R selectivity vs MC1R [2]: 0.39
- MC4R selectivity vs MC3R [2]: 2.44
- MC4R cAMP % max activation ([2]; hMC4R stable cell line): (46%)
- EC50 ([2]; hMC4R stable cell line): 2.4 nM

SMILES: CC(=O)N[C@@H](CCCNC(=N)N)C(=O)N[C@H]1CSSC[C@@H](C(N)=O)NC(=O)[C@H](Cc2c[nH]c3ccccc23)NC(=O)[C@H](CCCNC(=N)N)NC(=O)[C@@H](Cc2ccc(Br)cc2)NC(=O)[C@H](Cc2c[nH]cn2)NC(=O)[C@@H](C)NC1=O [CTX-2206, Arg-cyclo(Cys-D-Ala-His-D-Phe(4-Br)-Arg-Trp-Cys)]
- Emax ([1]; hMC3R stable cell line): 28%
- EC50 ([1]; hMC3R stable cell line): 22 nM
- MC4R selectivity vs MC3R [2]: 7.35
- Emax ([2]; hMC4R stable cell line): 98%
- EC50 ([2]; hMC4R stable cell line, unit inferred): 3 nM

SMILES: CC(=O)N[C@@H](CCCNC(=N)N)C(=O)N[C@H]1CSSC[C@@H](C(N)=O)NC(=O)[C@@H](Cc2c[nH]c3ccccc23)NC(=O)[C@H](CCCNC(=N)N)NC(=O)[C@@H](Cc2ccc(C(C)(C)C)cc2)NC(=O)[C@H](CCCNC(=N)N)NC(=O)[C@@H](C)NC1=O [CTX-1242, Arg-cyclo(Cys-D-Ala-Arg-D-Phe(4-tBu)-Arg-D-Trp-Cys)] (Ac-RC[dA]R[dPhe(4-tBu)]R[dW]C-NH2; disulfide 2-8 (inferred))
- Emax ([1]; hMC3R stable cell line): 2.8%
- MC4R selectivity vs MC1R [2]: 0.64
- MC4R selectivity vs MC3R [2]: 0.08
- Emax ([2]; hMC4R stable cell line): 5.8%

SMILES: CC(=O)N[C@@H](CCCNC(=N)N)C(=O)N[C@H]1CSSC[C@@H](C(=O)N[C@@H](CCCCN)C(=O)N2CCC[C@H]2C(N)=O)NC(=O)[C@@H](Cc2c[nH]c3ccccc23)NC(=O)[C@H](CCCNC(=N)N)NC(=O)[C@@H](Cc2ccc(Br)cc2)NC(=O)[C@H](CCCNC(=N)N)NC(=O)[C@@H](C)NC1=O [CTX-1217, Arg-cyclo(Cys-D-Ala-Arg-D-Phe(4-Br)-Arg-D-Trp-Cys)-Lys-Pro] (Ac-RC[dA]R[dPhe(4-Br)]R[dW]CKP-NH2; disulfide 2-8)
- Emax ([1]; hMC3R stable cell line): 13%
- EC50 ([1]; hMC3R stable cell line): 4 nM
- MC4R selectivity vs MC1R [2]: 1.12
- MC4R selectivity vs MC3R [2]: 2.73
- Emax ([2]; hMC4R stable cell line): 69%

SMILES: CC(=O)N[C@@H](CCCNC(=N)N)C(=O)N[C@H]1CSSC[C@@H](C(N)=O)NC(=O)[C@@H](Cc2c[nH]c3ccccc23)NC(=O)[C@H](CCCNC(=N)N)NC(=O)[C@@H](Cc2ccc(-c3ccccc3)cc2)NC(=O)[C@H](CCCNC(=N)N)NC(=O)[C@@H](C)NC1=O [CTX-1243, Arg-cyclo(Cys-D-Ala-Arg-D-Bip-Arg-D-Trp-Cys)] (Ac-RC[dA]R[dBip]R[dW]C-NH2; disulfide 2-8 (inferred))
- Emax ([1]; hMC3R stable cell line): 7.7%
- MC4R selectivity vs MC1R [2]: 0.21
- MC4R selectivity vs MC3R [2]: 0.38
- Emax ([2]; hMC4R stable cell line): 32%

SMILES: CC(=O)N[C@@H](CCCNC(=N)N)C(=O)N[C@H]1CSSC[C@@H](C(=O)N[C@@H](CCCNC(=N)N)C(=O)N[C@H](Cc2ccccc2)C(N)=O)NC(=O)[C@@H](Cc2c[nH]c3ccccc23)NC(=O)[C@H](CCCNC(=N)N)NC(=O)[C@@H](Cc2ccc(Br)cc2)NC(=O)[C@H](CCCNC(=N)N)NC(=O)[C@@H](C)NC1=O [CTX-1222, Arg-cyclo(Cys-D-Ala-Arg-D-Phe(4-Br)-Arg-D-Trp-Cys)-Arg-D-Phe] (Ac-RC[dA]R[dPhe(4-Br)]R[dW]CR[dF]-NH2; disulfide 2-8 (inferred))
- Emax ([1]; hMC3R stable cell line): 38%
- MC4R selectivity vs MC1R [2]: 0.1
- MC4R selectivity vs MC3R [2]: 0.33
- Emax ([2]; hMC4R stable cell line): 79%

SMILES: CC(=O)N[C@@H](CCCNC(=N)N)C(=O)N[C@H]1CSSC[C@@H](C(N)=O)NC(=O)[C@@H](Cc2c[nH]c3ccccc23)NC(=O)[C@H](CCCNC(=N)N)NC(=O)[C@@H](Cc2c[nH]c3ccccc23)NC(=O)[C@H](CCCNC(=N)N)NC(=O)[C@@H](C)NC1=O [CTX-1244, Arg-cyclo(Cys-D-Ala-Arg-D-Trp-Arg-D-Trp-Cys)] (Ac-RC[dA]R[dW]R[dW]C-NH2; disulfide 2-8 (inferred))
- MC3R cAMP % max activation ([1]; hMC3R stable cell line): (10%)
- EC50 ([1]; hMC3R stable cell line): 13 nM
- MC4R selectivity vs MC1R [2]: 0.26
- MC4R selectivity vs MC3R [2]: 0.11
- MC4R cAMP % max activation ([2]; hMC4R stable cell line): (42%)
- EC50 ([2]; hMC4R stable cell line): 109 nM

SMILES: CC(=O)N[C@@H](CCCNC(=N)N)C(=O)N[C@H]1CSSC[C@@H](C(N)=O)NC(=O)[C@@H](Cc2c[nH]c3ccccc23)NC(=O)[C@H](CCCNC(=N)N)NC(=O)[C@@H](Cc2ccc(Br)cc2)NC(=O)[C@@H](CCCNC(=N)N)NC(=O)[C@@H](C)NC1=O [CTX-1250, Arg-cyclo(Cys-D-Ala-D-Arg-D-Phe(4-Br)-Arg-D-Trp-Cys)] (Ac-RC[dA][dR][dPhe(4-Br)]R[dW]C-NH2; disulfide 2-8 (inferred))
- Emax ([1]; hMC3R stable cell line): 10%
- MC4R selectivity vs MC1R [2]: 1.06
- MC4R selectivity vs MC3R [2]: 11
- Emax ([2]; hMC4R stable cell line): 8.7%

SMILES: CCCC[C@H](NC(C)=O)C(=O)N[C@H]1CSSC[C@@H](C(=O)N[C@@H](CCCNC(=N)N)C(=O)N[C@@H](Cc2ccccc2)C(=O)NCC(N)=O)NC(=O)[C@@H](Cc2c[nH]c3ccccc23)NC(=O)[C@H](CCCNC(=N)N)NC(=O)[C@H](Cc2ccc3ccccc3c2)NC(=O)[C@H](Cc2c[nH]cn2)NC1=O [CTX-2128, Nle-cyclo(Cys-His-Nal(2′)-Arg-D-Trp-Cys)-Arg-Phe-Gly] (Ac-[Nle]CH[2Nal]R[dW]CRFG-NH2; disulfide 2-7 (inferred))
- Emax ([1]; % maximal activation): 99%
- MC4R selectivity vs MC3R ([1]; MC4R versus MC3R): 0.01
- Emax ([2]; % maximal activation): 87%

SMILES: CC(=O)N[C@@H](CCCNC(=N)N)C(=O)N[C@H]1CSSC[C@@H](C(N)=O)NC(=O)[C@H](Cc2c[nH]c3ccccc23)NC(=O)[C@H](CCCNC(=N)N)NC(=O)[C@@H](Cc2ccc(Br)cc2)NC(=O)[C@@H]2CCCN2C(=O)[C@@H](C)NC1=O [CTX-2204, Arg-cyclo(Cys-D-Ala-Pro-D-Phe(4-Br)-Arg-Trp-Cys)] (Ac-RC[dA]P[dPhe(4-Br)]RWC-NH2; disulfide 2-8 (inferred))
- Emax ([1]; hMC3R stable cell line): 0.2%
- EC50 ([1]; hMC3R stable cell line): 11 nM
- MC4R selectivity vs MC3R [2]: 0.19
- Emax ([2]; hMC4R stable cell line): 13%

SMILES: CC(=O)N[C@@H](CCCNC(=N)N)C(=O)N[C@H]1CSSC[C@@H](C(N)=O)NC(=O)[C@@H](Cc2c[nH]c3ccccc23)NC(=O)[C@H](CCCNC(N)=O)NC(=O)[C@@H](Cc2ccc(Br)cc2)NC(=O)[C@H](CCCNC(=N)N)NC(=O)[C@@H](C)NC1=O [CTX-1253, Arg-cyclo(Cys-D-Ala-Arg-D-Phe(4-Br)-Cit-D-Trp-Cys)] (Ac-RC[dA]R[dPhe(4-Br)][Cit][dW]C-NH2; disulfide 2-8 (inferred))
- Emax ([1]; hMC3R stable cell line): 9.2%
- EC50 ([1]; hMC3R stable cell line): 4 nM
- MC4R selectivity vs MC1R [2]: 0.57
- MC4R selectivity vs MC3R [2]: 0.53
- Emax ([2]; hMC4R stable cell line): 58%

SMILES: CC(=O)N[C@@H](CCCNC(=N)N)C(=O)N[C@H]1CSSC[C@@H](C(N)=O)NC(=O)[C@@H](Cc2c[nH]c3ccccc23)NC(=O)[C@@H](CCCNC(=N)N)NC(=O)[C@@H](Cc2ccc(Br)cc2)NC(=O)[C@H](CCCNC(=N)N)NC(=O)[C@@H](C)NC1=O [CTX-1252, Arg-cyclo(Cys-D-Ala-Arg-D-Phe(4-Br)-D-Arg-D-Trp-Cys)] (Ac-RC[dA]R[dPhe(4-Br)][dR][dW]C-NH2; disulfide 2-8 (inferred))
- Emax ([1]; hMC3R stable cell line): 1.1%
- MC4R selectivity vs MC1R [2]: 0.04
- MC4R selectivity vs MC3R [2]: 0.06
- Emax ([2]; hMC4R stable cell line): 4.4%

SMILES: CC(=O)N[C@@H](CCCNC(=N)N)C(=O)N[C@H]1CSSC[C@@H](C(N)=O)NC(=O)[C@@H](Cc2c[nH]c3ccccc23)NC(=O)[C@H](CCCNC(=N)N)NC(=O)[C@@](C)(Cc2ccccc2)NC(=O)[C@H](CCCNC(=N)N)NC(=O)[C@@H](C)NC1=O [CTX-1240, Arg-cyclo(Cys-D-Ala-Arg-aMe-D-Phe-Arg-D-Trp-Cys)] (Ac-RC[dA]R[d(αMeF)]R[dW]C-NH2; disulfide 2-8)
- MC3R cAMP % max activation ([1]; hMC3R stable cell line): (27%)
- MC4R selectivity vs MC1R [2]: 0.46
- MC4R selectivity vs MC3R [2]: 0.41
- MC4R cAMP % max activation ([2]; hMC4R stable cell line): (81%)

SMILES: CC(=O)N[C@@H](CCCNC(=N)N)C(=O)N[C@H]1CSSC[C@@H](C(N)=O)NC(=O)[C@@H](Cc2c[nH]c3ccccc23)NC(=O)[C@H](CCCNC(=N)N)NC(=O)[C@H]2Cc3ccccc3CN2C(=O)[C@H](CCCNC(=N)N)NC(=O)[C@@H](C)NC1=O [CTX-1273, Arg-cyclo(Cys-D-Ala-Arg-D-Tic-Arg-D-Trp-Cys)] (Ac-RC[dA]R[dTic]R[dW]C-NH2; disulfide 2-8)
- Emax ([1]; hMC3R stable cell line): 3.7%
- MC4R selectivity vs MC1R [2]: 0.05
- MC4R selectivity vs MC3R [2]: 0.64
- Emax ([2]; hMC4R stable cell line): 32%
